In EP3917907B1, “MODULATORS OF POTASSIUM ION CHANNELS AND USES THEREOF” (Universitá Degli Studi Di Salerno, priority 2019, dated 2020):

Columns and labels:
[1] = Solution stability (HPLC, extracellular solution, ambient temperature); type: physicochemical; settings: percentage of degradation after 6 h at ambient temperature; 100 ppm in extracellular solution pH 7.4
Procedure: (§1) In order to study the solution stability and photostability of the potassium channel modulators object of the present invention, a stock solution of the proper analyte (1 mg/mL) in dimethylsulfoxide (DMSO) has been prepared. This solution has been then diluted to a concentration of 100 ppm using extracellular solution containing (in mM): 138 NaCl, 2 CaCl2, 5.4 KCl, 1 MgCl2, 10 glucose, and 10 HEPES, at pH 7.4, adjusted with NaOH. To measure solution stability, the diluted solutions have been maintained at ambient temperature for 6 h. To measure photostability, the diluted solutions have been irradiated for 6 h using a Oriel Sol3A Solar Simulator (Newport corporation, Irvine, CA, USA) with a 12x12 inches output beam. Aliquots of solution have been withdrawn after 6h and analyzed by HPLC using a Kinetex C18, 150 mm × 4.6 mm × 2.6 µm (Phenomenex, Bologna, Italy) as stationary phase and a mobile phase constituted by A: H2O/CH3CN (80:20) and B: CH3CN. Gradient elution has been performed from 20% to 90% of B in 7.50 minutes and from 90% to 20% of B in 1 minute. The pump flux has been set to 1.5 mL/min. Column has been thermostatted at 40°C during analysis. Results are espressed in Table 3 as percentage of degradation of the product calculated as ratio between the peak area of the analyte at time 0 (Pa0) and after 6h (Pa6) using the following formula: % degradation = (Pa0−Pa6)/Pa0 *100. [formula]

[2] = Photostability (HPLC, solar simulator irradiation); type: physicochemical; settings: percentage of degradation after 6 h irradiation with solar simulator; 100 ppm in extracellular solution pH 7.4
Procedure: as §1

[3] = biological target: T1, Kv7.2 (Homo sapiens, UniProt O43526); test: Whole-cell patch-clamp on CHO cells transiently expressing Kv7.2; type: cell-based; settings: CHO cells, mean±SEM, >1 activating, <1 inhibiting; for Idrug/Ictl at 0 mV: ratio of ramp-evoked Kv7.2 current amplitude in presence and absence of drug at 0 mV; for Idrug/Ictl at -40 mV: ratio of ramp-evoked Kv7.2 current amplitude in presence and absence of drug at -40 mV
T1 construct: expressed in transfected cells; host or cells: CHO cells (ATCC CRL-9618), transient transfection, pcDNA3.1(+)
Procedure: (§2) According to the experimental protocol, these plasmids were expressed individually or in combination (in particular of Kv7.2 and Kv7.3), together with a plasmid-expressing enhanced green fluorescent protein (Clontech, Palo Alto, CA) used as a transfection marker. Total cDNA in the transfection mixture was kept at 4 µg. CHO cells were grown in 100-mm plastic Petri dishes in Dulbecco's modified Eagle's medium containing 10% fetal bovine serum, nonessential amino acids (0.1 mM), penicillin (50 U/ml), and streptomycin ([…]) in a humidified atmosphere at 37°C with 5% CO2. The cells were plated on glass coverslips coated with poly-L-lysine, and transfected one day after plating with the appropriate cDNA using Lipofectamine 2000 (Life Technologies), according to the manufacturer's protocol.
(§3) Currents from CHO cells were recorded at room temperature (20-22°C) 24 hours after trasfection using the whole-cell configuration of the patch-clamp technique, with glass micropipettes of 3-5 MΩ resistance. During the recording, constant perfusion of extracellular solution was maintained. The extracellular solution contained (in mM): 138 NaCl, 2 CaCl2, 5.4 KCl, 1 MgCl2, 10 glucose, and 10 HEPES, at pH 7.4, adjusted with NaOH. The pipette (intracellular) solution contained (in mM): 140 KCl, 2 MgCl2, 10 EGTA, 10 HEPES, 5 Mg^2+-ATP, at pH 7.3-7.4, adjusted with KOH. Currents were recorded using an Axopatch-200A amplifier, filtered at 5 kHz, and digitized using a DigiData 1440A (Molecular Devices). The pCLAMP software (version 10.2, Molecular Devices) was used for data acquisition and analysis. To evaluate the activity of exemplary compounds on Kv7.2 (see Table 1), as well as on Kv7.1, Kv7.2/7.3, Kv7.3 and Kv7.4 channels for selected compounds (see Table 2), the cells were clamped at -80 mV and currents were elicited by 3-s voltage ramps from -80 mV to +20 mV in the presence and absence of each compound. […] The effects of drugs were expressed as shift in the ramp-voltage (ΔV) calculated at 20% of the maximal current (Miceli et al, Proc Natl Acad Sci U S A. 2013, 110(11):4386-91). Curves were fitted using the following equation: y=max/(1+x/EC50)n, where x is the drug concentration, n is the Hill coefficient and max is the maximal value achieved, as previously described (Ambrosino et al, Br J Pharmacol. 2013, 168(6):1430-1444). Data analysis and fit were performed using Sigmaplot (version 12.3).
Ramp-evoked Kv7.2 currents were analyzed by measuring the currents at -40 mV (a membrane potential value close to the activation threshold) and at 0 mV (a membrane potential value at which Kv7.2 conductance is largely saturated). In particular, -40 mV represents the threshold potential for spike initiation and 0 mV represents instead the membrane potential value at which maximal conductance of the channel is achieved.
In Table 1, the effect of exemplary compounds of the invention is expressed as the ratio between current amplitude in the presence (Idrug) and absence (Ictl) of the drug at these two membrane voltages. […]

[4] = biological target: T2, Kv7.1 (Homo sapiens, UniProt P51787); test: Whole-cell patch-clamp on CHO cells transiently expressing Kv7.1; type: cell-based; settings: shift in ramp-voltage (ΔV) at 20% of maximal current, 0.01-10 µM
T2 construct: expressed in transfected cells; host or cells: CHO cells (ATCC CRL-9618), transient transfection, pcDNA3.1(+)
Procedure: as §2
as §3, with “Curves were fitted using the following equation: y=max/(1+x/EC50)n, where x is the drug concentration, n is the Hill coefficient and max is the maximal value achieved, as previously described (Ambrosino et al, Br J Pharmacol. 2013, 168(6):1430-1444). Data analysis and fit were performed using Sigmaplot (version 12.3).” left out

[5] = biological target: T3, Kv7.2/7.3 (Homo sapiens, UniProt O43525+O43526); test: Whole-cell patch-clamp on CHO cells co-expressing Kv7.2 and Kv7.3; type: cell-based
T3 construct: expressed in transfected cells; host or cells: CHO cells (ATCC CRL-9618), transient co-transfection, pcDNA3.1(+)
Procedure: as §2, §3

Row | Compound | Solution stability [1] | Photostability [2] | Idrug/Ictl at 0 mV [3] | Idrug/Ictl at -40 mV [3] | EC50 [4] | EC50 ([5]; Kv7.2/7.3, shift in ramp-voltage (ΔV) at 20% of maximal current, 0.01-10 µM) [nM] | potency relative to retigabine in increasing Kv7.2/3 currents ([5]; from EC50 values of Table 2)
1 | CCCCCCC(=O)Nc1ccc(NCc2ccc(C(F)(F)F)cc2)cc1N [N-(2-amino-4-((4-(trifluoromethyl)benzyl)amino)phenyl)heptanamide] | A (degradation lower than 20%) | B (20%< degradation<40%) | 2.55±0.56 | 16.90±3.33 | Inactive | 200 ± 100 | eight times more potent than retigabine
2 | CC1(C)[C@@H]2CC[C@@]1(CS(=O)(=O)Nc1ccc3c(c1)CCN3Cc1ccc(F)cc1)C(=O)C2 [1-((1S,4R)-7,7-dimethyl-2-oxobicyclo[2.2.1]heptan-1-yl)-N-(1-(4-fluorobenzyl)indolin-5-yl)methanesulfonamide] | C (degradation > 40%) | C (degradation > 40%) | 0.99±0.06 | 1.12±0.05 | – | – | –
3 | O=S(=O)(Nc1ccc2c(c1)CCN2Cc1ccc(C(F)(F)F)cc1C(F)(F)F)C1CCCCC1 [N-(1-(2,4-bis(trifluoromethyl)benzyl)indolin-5-yl)cyclohexanesulfonamide] | B (20%< degradation<40%) | C (degradation > 40%) | 1.22±0.11 | 1.53±0.39 | – | – | –
4 | CC(C)(C)CC(=O)Nc1ccc2c(ccn2Cc2ccc(C(F)(F)F)cc2)c1 [3,3-dimethyl-N-(1-(4-(trifluoromethyl)benzyl)-1H-indol-5-yl)butanamide] | A (degradation lower than 20%) | A (degradation lower than 20%) | 3.54±0.88 | 8.23±1.36 | – | – | –
5 | CCCCCCC(=O)Nc1ccc(NCc2ccc(OC(F)(F)F)cc2)cc1N [N-(2-amino-4-((4-(trifluoromethoxy)benzyl)amino)phenyl)heptanamide] | A (degradation lower than 20%) | B (20%< degradation<40%) | 2.05±0.56 | 12.4±2.05 | – | – | –
6 | COc1ccc(Cn2ccc3cc(NS(=O)(=O)C4CCCCC4)ccc32)cc1 [N-(1-(4-methoxybenzyl)-1H-indol-5-yl)cyclohexanesulfonamide] | A (degradation lower than 20%) | A (degradation lower than 20%) | 1.63±0.06 | 2.00±0.36 | – | – | –
7 | O=S(=O)(Nc1ccc2c(c1)CCN2CCc1ccc(F)cc1)C1CCCCC1 [N-(1-(4-fluorophenethyl)indolin-5-yl)cyclohexanesulfonamide] | C (degradation > 40%) | C (degradation > 40%) | 1.37±0.17 | 3.24±1.52 | – | – | –
8 | O=C(Nc1ccc2c(c1)CCN2Cc1ccc(F)cc1)NC1CCCCC1 [1-cyclohexyl-3-(1-(4-fluorobenzyl)indolin-5-yl)urea] | A (degradation lower than 20%) | B (20%< degradation<40%) | 0.85±0.12 | 0.95±0.16 | – | – | –
9 | O=S(=O)(Nc1ccc2c(c1)CCN2Cc1ccc(F)cc1)N1CCCCCC1 [N-(1-(4-fluorobenzyl)indolin-5-yl)azepane-1-sulfonamide] | B (20%< degradation<40%) | B (20%< degradation<40%) | 0.98±0.11 | 0.89±0.12 | – | – | –
10 | COCCOCCC(=O)Nc1ccc2c(ccn2Cc2ccc(C(F)(F)F)cc2)c1 [3-(2-methoxyethoxy)-N-(1-(4-(trifluoromethyl)benzyl)-1H-indol-5-yl)propanamide] | A (degradation lower than 20%) | A (degradation lower than 20%) | 1.34±0.10 | 2.64±0.77 | – | – | –
11 | O=C(Nc1ccc2c(c1)CCN2Cc1ccc(F)cc1)C1CCCCC1 [N-(1-(4-fluorobenzyl)indolin-5-yl)cyclohexanecarboxamide] | A (degradation lower than 20%) | B (20%< degradation<40%) | 0.66±0.07 | 1.32±0.21 | – | – | –

More lines, now with the values ahead:

Row | Solution stability [1] | Photostability [2] | Idrug/Ictl at 0 mV [3] | Idrug/Ictl at -40 mV [3] | EC50 [4] | EC50 ([5]; Kv7.2/7.3, shift in ramp-voltage (ΔV) at 20% of maximal current, 0.01-10 µM) [nM] | potency relative to retigabine in increasing Kv7.2/3 currents ([5]; from EC50 values of Table 2) | Compound
12 | C (degradation > 40%) | C (degradation > 40%) | 1.93±0.32 | 2.55±0.79 | – | – | – | CC(C)CS(=O)(=O)Nc1ccc2c(c1)CCN2Cc1ccc(F)cc1 [N-(1-(4-fluorobenzyl)indolin-5-yl)-2-methylpropane-1-sulfonamide]
13 | C (degradation > 40%) | C (degradation > 40%) | 0.19±0.1 | 1.5±0.2 | – | – | – | Nc1cc(NCc2ccc(C(F)(F)F)cc2)ccc1NS(=O)(=O)C1CCCCC1 [N-(2-amino-4-((4-(trifluoromethyl)benzyl)amino)phenyl)cyclohexanesulfonamide]
14 | A (degradation lower than 20%) | C (degradation > 40%) | 1.26±0.13 | 2.01±0.58 | – | – | – | CCOC(=O)Nc1ccc2c(c1)CCN2Cc1ccc(F)cc1 [ethyl (1-(4-fluorobenzyl)indolin-5-yl)carbamate]
15 | A (degradation lower than 20%) | A (degradation lower than 20%) | 0.86±0.01 | 1.50±0.16 | – | – | – | COCCOCC(=O)Nc1ccc2c(ccn2Cc2ccc(C(F)(F)F)cc2)c1 [2-(2-methoxyethoxy)-N-(1-(4-(trifluoromethyl)benzyl)-1H-indol-5-yl)acetamide]
16 | A (degradation lower than 20%) | A (degradation lower than 20%) | 1.18±0.09 | 1.64±0.10 | – | – | – | O=S(=O)(CCC1CCCCC1)Nc1ccc2c(ccn2Cc2ccc(F)cc2)c1 [2-cyclohexyl-N-(1-(4-fluorobenzyl)-1H-indol-5-yl)ethane-1-sulfonamide]
